Source: BigSolDB 2.1

Cc1cnc(C(=O)O)c[n+]1[O-]
solubility (mole fraction)
Conditions | 283.15 K | 288.15 K | 293.15 K | 298.15 K | 303.15 K | 308.15 K | 313.15 K | 318.15 K
in acetone | 0.00157 | 0.00176 | 0.00198 | 0.00222 | 0.00249 | 0.00279 | 0.00317 | 0.00362
in acetonitrile | 0.00057 | 0.000757 | 0.00097 | 0.00118 | 0.00142 | 0.00172 | 0.00205 | 0.00249
in methanol | 0.00211 | 0.00244 | 0.00285 | 0.00328 | 0.00381 | 0.00443 | 0.00517 | 0.00598
in water | 0.00198 | 0.00227 | 0.00265 | 0.0031 | 0.0036 | 0.00426 | 0.00498 | 0.00579
